{"source": "patent US20220000872A1", "about": "“METHOD OF ENHANCING IMMUNE-BASED THERAPY” (OncoTracker, Inc., priority 2018, published 2022)", "key": {"B7-H3 gene expression": {"system": "B7-H3 gene expression", "experiment": "B7-H3 gene expression (qPCR) in MM BMMCs, U266 cells and THP-1 monocytes", "type": "cell-based, human", "conditions": "RUX 1 μM", "protocol": "We further examined BMMCs from two MM patients (#s 2188 and 2935) treated with RUX (1 μM) for 24 hours. RUX reduced B7-H3 gene expression as measured using qPCR in BMMCs (FIG. 7B). We also analyzed BMMCs co-cultured with stromal cells. B7-H3 gene expression was increased 16-fold in BMMCs after these cells were co-cultured with stromal cells. […] We further determined the effect of RUX (1 μM) on gene expression of B7-H3 in the MM cell line U266 co-cultured with THP-1 monocytes (T) after 48 hours. RUX at 1 μM reduced B7-H3 expression in both U266 MM cells and THP-1 monocytes, cultured alone or co-cultured, compared to cell cultures not treated with RUX (FIG. 7D)."}, "IL-2 gene expression": {"system": "IL-2 gene expression", "experiment": "IL-2 gene expression in MMBM (Example 12)", "type": "cell-based, human", "protocol": "Bone marrow mononuclear cells (BMMCs) were collected from MM patients after obtaining IRB approval. Single-cell suspensions were prepared from human MM LAGλ-1A xenografts which had been grown in severe combined immunodeficient mice. HS-5 stromal and SUP-T1 T cells were purchased from ATCC. The cells were cultured and treated with or without RUX and then subjected to qRT-PCR, flow cytometric analysis, and western blot analysis. For qRT-PCR, total RNA was extracted and applied to cDNA synthesis, followed by qPCR. Gene expression was analyzed in MM BMMCs alone or co-cultured with stromal cells or T cells with or without Rux treatment (1 μM) in vitro.\nNext, we tested whether B7-H3 blockade by Rux could potentially restore exhausted T cell activity against myeloma cells in MMBM."}, "PD-L1 gene expression": {"system": "PD-L1 gene expression", "experiment": "PD-L1 gene expression in BMMCs from MM patient #2188 co-cultured with HS-5 stromal cells or THP-1 monocytes", "type": "cell-based, human", "conditions": "RUX 1 μM, 48 hours", "protocol": "We also examined the effects of RUX on PD-L1 gene expression in MM tumor cells co-cultured with stromal cells or monocytes in vitro. BMMCs from MM patient #2188 were co-cultured with stromal cells from the HS-5 cell line (ATCC, CRL-11882) with or without RUX (1 μM) treatment. After 48 hours of co-culture, PD-L1 gene expression was increased in both BMMCs (FIG. 5A) and stromal cells (FIG. 5B) from the co-culture of both cell types compared with its expression in those cell types cultured alone. The increased PD-L1 levels were reduced in the presence of RUX (1 μM) in both cell populations after 48 hours of culture. Similarly, PD-L1 gene expression was increased in both BMMCs and monocytes (THP-1 cells) after co-culture compared with cells cultured alone (FIG. 5C and FIG. 5D) and reduced following exposure to RUX (1 μM).\nFIG. 5A depicts relative PD-L1 gene expression in BMMCs from patient #2188 cultured with stromal cells (ATCC, HS-5) with RUX (1 μM) or without for 48 hours. BM, bone marrow cells alone; BM+1 μM, BMMCs treated with 1 μM RUX; BM/BM+S−0 μM, BMMCs with stromal cells without RUX; BM/BM+S+1 μM, BMMCs with stromal cells and 1 μM RUX.\nFIG. 5B depicts relative PD-L1 gene expression in stromal cells (ATCC, HS-5) co-cultured with BMMCs from patient #2188 on Transwell inserts with (1 μM) or without RUX for 48 hours. Stroma cells (S) alone; stromal cells+1 μM, stromal cells treated with RUX (1 μM); S/BM+S−0 μM, BMMCs with stromal cells without RUX; S/BM+S−1 μM, BMMCs with stromal cells with RUX at 1 μM.\nFIG. 5C depicts relative PD-L1 gene expression in BMMCs from patient #2188 co-cultured with THP-1 monocytes treated with (1 μM) or without RUX for 48 hours. BM, BMMCs alone; BM+1 μM, BMMCs treated with 1 μM RUX; BM/BM+T−0 μM, BMMCs with THP-1 monocytes without RUX; BM/BM+T+1 μM, BMMCs with THP-1 monocytes treated with RUX 1 μM.\nFIG. 5D depicts relative PD-L1 gene expression in THP-1 monocytes co-cultured with BMMCs from patient #2188 on Transwell inserts with (1 μM) or without RUX for 48 hours. THP-1 only, THP-1 cells alone; THP-1+1 μM, THP-1 cells treated with 1 μM RUX; T/BM+T−0 μM, MM BMMCs with THP-1 cells without RUX; T/BM+T−1 μM, BMMCs with THP-1 monocytes with RUX (1 μM)."}, "[1]": {"system": "Tumor cells from the LAGκ-1A human MM xenograft", "experiment": "Annexin V apoptosis assay of LAGκ-1A myeloma tumor cells with or without IL-2 pre-treated T-cells", "type": "cell-based", "conditions": "in the absence of T-cells", "protocol": "T-cells (SUP-T1, ATCC) were pre-treated with IL-2 (20 ng/ml) for 24 hours. In the RUX at 1 μM with anti-PD-L1 group, the antibody concentrations were varied as indicated on the x-axis but the RUX was tested at a fixed concentration (1 μM). For the anti-PD-L1 at 5 mg/mL with RUX group, the RUX concentrations were varied as on the x-axis but the anti-PD-L1 antibody was evaluated at a fixed concentration (5 mg/mL). Tumor cells from the LAGκ-1A human MM xenograft were single-cell suspended and co-cultured with T cells treated with either RUX (1 μM) and anti-PD-L1 antibody or RUX alone for 72 hours. Tumor cell apoptosis was measured using the Annexin V assay per the manufacturer's protocol (Biovision) followed with flow cytometric analysis (FC-500 cytometer using Cytometric CXP software, both Beckman Coulter).\nT-cells were pre-treated with IL-2 (20 ng/ml) for 24 hours. […] For the anti-PD-1 at 5 mg/mL with RUX group, the RUX concentrations were varied as on the x-axis but the anti-PD-1 antibody was evaluated at a fixed concentration (5 mg/mL). […] Tumor cell apoptosis was measured using the Annexin V assay per the manufacturer's protocol (Biovision) followed with flow cytometric analysis (FC-500 cytometer using Cytometric CXP software, both Beckman Coulter). […]"}}, "note": "“Also recorded” adds a separate entry of the source.", "data": [{"smiles": "N#CC[C@H](C1CCCC1)n1cc(-c2ncnc3[nH]ccc23)cn1", "note": "[RUX, ruxolitinib]", "values": [{"measurement": "B7-H3 gene expression in BMMCs", "setting": "B7-H3 gene expression; BMMCs from two MM patients (#2188, #2935), 24 hours, qPCR", "value": "reduced; also recorded: down-regulates"}, {"measurement": "B7-H3 expression in BMMCs co-cultured with stromal cells", "setting": "B7-H3 gene expression", "value": "markedly reduced; also recorded: decreases"}, {"measurement": "B7-H3 expression in U266 MM cells", "setting": "B7-H3 gene expression; cultured alone or co-cultured with THP-1, 48 hours", "value": "reduces"}, {"measurement": "B7-H3 expression in THP-1 monocytes", "setting": "B7-H3 gene expression; cultured alone or co-cultured with U266, 48 hours", "value": "reduced"}, {"measurement": "IL-2 gene expression in BM cocultured with T cells", "setting": "IL-2 gene expression; SUP-T1", "value": "elevated"}, {"measurement": "IL-2 gene expression in MMBM with lower plasma percentages", "setting": "IL-2 gene expression; plasma cell percentage <30%", "value": "increase"}, {"measurement": "increase of IL-2 gene expression in MMBM with higher plasma cell percentages", "setting": "IL-2 gene expression; plasma cell percentage >70%", "value": "not"}, {"measurement": "PD-L1 gene expression in stromal cells co-cultured with BMMCs", "setting": "PD-L1 gene expression; HS-5 with patient #2188 BMMCs", "value": "reduced"}, {"measurement": "PD-L1 gene expression in monocytes (THP-1 cells) co-cultured with BMMCs", "setting": "PD-L1 gene expression; THP-1 with patient #2188 BMMCs", "value": "reduced"}, {"measurement": "PD-L1 gene expression in BMMCs co-cultured with stromal cells", "setting": "PD-L1 gene expression; patient #2188 BMMCs with HS-5", "value": "reduced"}, {"measurement": "PD-L1 gene expression in BMMCs co-cultured with monocytes", "setting": "PD-L1 gene expression; patient #2188 BMMCs with THP-1", "value": "reduced"}, {"measurement": "apoptosis of LAGκ-1A cells, single-agent treatment", "setting": "[1]", "value": "does not lead to significant apoptosis"}]}]}
